This passage reports Activity and IC50 results from ChEMBL document CHEMBL1148063, “(+/-)-Gelliusines A and B, two diastereomeric brominated tris-indole alkaloids from a deep water new caledonian marine sponge (Gellius or Orina sp.)” (J Nat Prod, 1994).

In general, IC50 refers to the point on the concentration scale where inhibition reaches its midpoint. Lower therefore signals inhibition by little substance.

In brackets after ≈: the same amount, converted by molar mass. Activity calls are given as the source filed them. No cut-off for these calls is given here.

The test system of experiment [1] is Ileum. In words: Inhibition of acetylcholine-induced contraction in guinea pig ileum at 0.2 ug/ml. The following applies: Cavia porcellus. In kind it is functional, tissue-based.
In experiment [2] the test system is Ileum. In words: Inhibition of acetylcholine-induced contraction in guinea pig ileum at 0.5 ug/ml. Format: functional, tissue-based. The settings on record: Cavia porcellus.
The test system of a further experiment is KB. In words: Cytotoxicity against human KB cells. Format: functional, cell-based.
The test system of experiment [3] is P388. In words: Cytotoxicity against mouse P388 cells. In kind it is functional, cell-based.
Experiment [4] has as its system P388. In words: Cytotoxicity against mouse doxorubicin-resistant P388 cells. Format: functional, cell-based.
For another experiment, the system named is HT-29. In words: Cytotoxicity against human HT-29 cells. In kind it is functional, cell-based.
Experiment [5] in a line: Cytotoxicity against human NSCLC-N6 cells. Format: functional, cell-based.
The test system of experiment [6] is Ileum. In words: Inhibition of serotonin-induced contraction in guinea pig ileum at 4 ug/ml. Format: functional, tissue-based. The following applies: Cavia porcellus.
For the next experiment, the species on record is Cavia porcellus. In words: Antagonist activity at serotonin receptor in guinea pig ileum. In kind it is functional, tissue-based.

As for `CC(C)NCC(O)COc1cccc2ccccc12` (centres undefined), the result with Ileum [1] was inactive.
In the case of `CC(COc1ccccc1)N(CCCl)Cc1ccccc1` (centres undefined), the outcome in the experiment with Ileum [2] was inactive.
As for `NCCc1c(C(CN)c2c[nH]c3cc(Br)ccc23)[nH]c2cc(C(CN)c3c[nH]c4cc(Br)ccc34)c(O)cc12` (racemic) [GELLIUSINE A], the IC50 (in the experiment with KB; in the experiment with P388 [3]; in the experiment with P388 [4]; in the experiment with HT-29; in [5]) was 10 mg/L (≈ 15.4 µM) in each case. In addition, the result in the experiment on Ileum [6] and in the experiment filed under Cavia porcellus was Active.
